Patent US10632106B2, “Methods of cancer treatment with 2-(1′H-Indole-3′-carbonyl)-thiazole-4-carboxylic acid methyl ester” (Ariagen, Inc., priority 2009, dated 2020)

What was measured:
Type in all cases: in vivo
[1] = test system: M14 (human skin cancer) xenografts; test: M14 xenograft growth inhibition; conditions: ITE 100-200 mg/kg i.p. once daily
Method: (§1) All the procedures related to animal handling, care, and the treatment in the study were performed following guidelines of KeyGen Biotechn Co., Ltd. (Nanjing, China), a contract research organization we hired, based on the guidance of the Association for Assessment and Accreditation of Laboratory Animal Care (AAALAC). Animals were checked for any effects of tumor growth and drug treatment on normal behavior such as mobility, food and water consumption, body weight gain/loss (bodyweights were measured every two days), eye/hair matting, and any other abnormal effect. Death and observed clinical signs were recorded. Individual animals with a tumor volume exceeding 3,000 mm^3 or animals of a group with a mean tumor volume exceeding 2,000 mm^3 were euthanized. In addition, animals showing signs of severe distress and/or pain or losing the capability of accessing adequate food or water were humanely sacrificed.
(§2) Cell lines HCT116, Siha, MFC were cultured in DMEM medium (high glucose) supplemented with 10% fetal bovine serum (FBS), SW116 and T24 in RPMI-1640 medium with 10% FBS, M14 and A375 in DMEM medium (high glucose) with 10% calf serum (CS), SGC7901 and Ketr-3 in RPMI-1640 medium with 10% CS, and CFPAC-1 in IMDM medium with 10% FBS. All of the cells were cultured, in the presence of 100 U/ml penicillin and 100 μg/ml streptomycin, at 37° C. in an atmosphere of 5% CO2 in air. […] The cells growing in an exponential phase were harvested and counted for tumor inoculation. Cell lines 5180 and U14 were maintained in ascites (peritoneal cavity fluid) of mice and were harvested and counted for tumor inoculation. […]
(§3) Tumor volume was measured every two days in two dimensions using a caliper and the volume was calculated with a formula of: V=0.5 a×b^2, where a and b are the long and short diameter (in mm) of a tumor, respectively. […] The TGD was calculated as: TGD=T−C, where T was the time (in days) required for tumors in a drug treated group to reach a predetermined mean tumor volume and C the time (in days) in the control group to reach the same volume. […]

[2] = test system: S180 (mouse soft tissue cancer/sarcoma) homografts; test: S180 homograft (syngeneic) growth inhibition in ICR mice; conditions: ITE 200 mg/kg i.p. once daily
Method: as §1, §2, §3

[3] = test system: HCT116 (human colon cancer) xenografts; test: HCT116 xenograft growth inhibition; conditions: ITE 100-200 mg/kg i.p. once daily
Method: as §1, §2, §3

[4] = test system: T24 (Human bladder cancer) xenografts; test: T24 xenograft growth inhibition; conditions: ITE 100-200 mg/kg i.p. once daily
Method: as §1, §2, §3

[5] = test system: MFC (mouse stomach cancer) homografts; test: MFC homograft (syngeneic) growth inhibition in 615 mice; conditions: ITE 200-300 mg/kg i.p. once daily
Method: as §1, §2, §3

[6] = TGI at day 26, TGI=(1−ΔT/ΔC)×100%
[7] = end of therapy relative to beginning

Structure (SMILES): COC(=O)c1csc(C(=O)c2c[nH]c3ccccc23)n1 [ITE, 2-(1′H-indole-3′-carbonyl)-thiazole-4-carboxylic acid methyl ester]
- TGD ([1]; TGD at Vol. 1,000): 5 days
- TGI (%) [1, 6]: 48%
- Weight Loss [1, 7]: 15%
- TGD ([2]; TGD at Vol. 2,000): 1.5 days
- TGI (%) ([2]; TGI at day 8, TGI=(1−ΔT/ΔC)×100%): 33%
- Weight Loss [2, 7]: 9%
- TGD ([3]; TGD at Vol. 1,000): 3 days
- TGI (%) ([3]; TGI at day 18, TGI=(1−ΔT/ΔC)×100%): 41%
- Weight Loss [3, 7]: 9%
- TGD ([4]; TGD at Vol. 1,000): 9 days
- TGI (%) [4, 6]: 66%
- Weight Loss [4, 7]: 13%
- TGD ([5]; TGD at Vol. 2,000): 9 days
- TGI (%) ([5]; TGI at day 10, TGI=(1−ΔT/ΔC)×100%): 70%
- Weight Loss [5, 7]: 16%
